Like-named read-outs stand apart in the source and are kept apart here.
Key:
Myzus persicae [1] = assay: Myzus persicae - spray test (Chinese cabbage leaf discs); assay type: in vivo; details: for pest or weed control at 500 g/ha: Myzus persicae, foliar, read-out: efficacy
Protocol: Myzus persicae—Spray Test
Solvent: 78 parts by weight of acetone • • 1.5 parts by weight of dimethylformamide
Emulsifier: alkylaryl polyglycol ether
To produce a suitable active compound preparation, 1 part by weight of active compound is dissolved using the stated parts by weight of solvent and made up with water containing an emulsifier concentration of 1000 ppm until the desired concentration is attained. To produce further test concentrations, the formulation is diluted with emulsifier-containing water.
Discs of Chinese cabbage leaves (Brassica pekinensis) infested by all stages of the green peach aphid (Myzus persicae) are sprayed with an active ingredient formulation of the desired concentration.
After 5-6 days, the efficacy in % is determined. 100% means that all the aphids have been killed; 0% means that no aphids have been killed.

[2] = log P by HPLC on reversed-phase (C18) columns, OECD Guideline 117; assay type: physicochemical; details: for chromatographic logP: reversed-phase (C18) HPLC column
Protocol: The log P values were determined in accordance with OECD Guideline 117 (EC Directive 92/69/EEC) by HPLC (high-performance liquid chromatography) using reversed-phase (RP) columns (C18), by the following methods:
[a] The LC-MS determination in the acidic range was carried out at pH 2.7 with 0.1% aqueous formic acid and acetonitrile (contains 0.1% formic acid) as mobile phases; linear gradient from 10% acetonitrile to 95% acetonitrile.
[b] LC-MS determination in the neutral range was carried out at pH 7.8 with 0.001 molar aqueous ammonium hydrogencarbonate solution and acetonitrile as mobile phases; linear gradient from 10% acetonitrile to 95% acetonitrile.

Myzus persicae [3] = assay: Myzus persicae - oral test; assay type: in vivo; details: for pest or weed control at 20 ppm: Myzus persicae, po, 120 h, read-out: efficacy
Protocol: Solvent: 100 parts by weight of acetone
To produce a suitable preparation of active compound, 1 part by weight of active compound is dissolved using the specified parts by weight of solvent and made up with water until the desired concentration is attained.
50 μl of the active compound preparation are transferred into microtitre plates and made up to a final volume of 200 μl with 150 μl of IPL41 insect medium (33%+15% sugar). Subsequently, the plates are sealed with parafilm, which a mixed population of green peach aphids (Myzus persicae) within a second microtitre plate is able to puncture and imbibe the solution through it.
After 5 days, the efficacy in % is determined. 100% means that all the aphids have been killed; 0% means that no aphids have been killed.

[4] = application rate 500 g/ha, after 5-6 days
[5] = neutral range, pH 7.8, aqueous ammonium hydrogencarbonate/acetonitrile
[6] = application rate 20 ppm, after 5 days
[7] = acidic range, pH 2.7, 0.1% aqueous formic acid/acetonitrile
[8] = acidic range, pH 2.7, 0.1% aqueous formic acid/acetonitrile, read-out: logP[a]
[9] = neutral range, pH 7.8, aqueous ammonium hydrogencarbonate/acetonitrile, read-out: logP[n]

## CC(O)c1ncc(C(=O)N(C)c2cccnc2)n1C (racemic) [Example I-1-9]
Myzus persicae [1]; [4]
  efficacy: 100%
[2]; [5]
  logP[n]: 0.45
Myzus persicae [3]; [6]
  efficacy: 100%

## CC(C)C(O)c1ncc(C(=O)N(C)c2cccnc2)n1C (racemic) [Example I-1-11]
Myzus persicae [1]; [4]
  efficacy: 90%
[2]; [7]
  logP[a]: 0.18
Myzus persicae [3]; [6]
  efficacy: 100%

## CN(C(=O)c1cnc(C(O)c2ccccc2Cl)n1C)c1cccnc1 (racemic) [Example I-1-13]
Myzus persicae [1]; [4]
  efficacy: 100%
[2]; [7]
  logP[a]: 0.85
Myzus persicae [3]; [6]
  efficacy: 100%

## CN(C(=O)c1cnc(C(O)c2cccc(Cl)c2)n1C)c1cccnc1 (racemic) [Example I-1-14]
Myzus persicae [1]; [4]
  efficacy: 90%
[2]; [7]
  logP[a]: 1.01
[2]; [5]
  logP[n]: 1.56
Myzus persicae [3]; [6]
  efficacy: 100%

## CN(C(=O)c1cnc(C(O)c2ccc(Cl)cc2)n1C)c1cccnc1 (racemic) [Example I-1-15]
Myzus persicae [1]; [4]
  efficacy: 100%
[2]; [7]
  logP[a]: 1.11
[2]; [5]
  logP[n]: 1.56
Myzus persicae [3]; [6]
  efficacy: 100%

## CN(C(=O)c1cnc(C(O)c2ccc(Cl)c(Cl)c2)n1C)c1cccnc1 (racemic) [Example I-1-16]
Myzus persicae [1]; [4]
  efficacy: 100%
[2]; [7]
  logP[a]: 1.42
[2]; [5]
  logP[n]: 1.87
Myzus persicae [3]; [6]
  efficacy: 100%

## CN(C(=O)c1cnc(C(O)c2ccccn2)n1C)c1cccnc1 (racemic) [Example I-1-17]
Myzus persicae [1]; [4]
  efficacy: 100%
[2]; [7]
  logP[a]: 0.02
[2]; [5]
  logP[n]: 0.71
Myzus persicae [3]; [6]
  efficacy: 100%

## CN(C(=O)c1cnc(C(O)c2cccnc2)n1C)c1cccnc1 (racemic) [Example I-1-18]
Myzus persicae [1]; [4]
  efficacy: 90%
[2]; [5]
  logP[n]: 0.60
Myzus persicae [3]; [6]
  efficacy: 100%

## CN(C(=O)c1cnc(C(O)c2ccncc2)n1C)c1cccnc1 (racemic) [Example I-1-19]
Myzus persicae [1]; [4]
  efficacy: 90%
[2]; [5]
  logP[n]: 0.54
Myzus persicae [3]; [6]
  efficacy: 100%

## CN(C(=O)c1cnc(C(O)c2cnccc2Cl)n1C)c1cccnc1 (racemic) [Example I-1-20]
Myzus persicae [1]; [4]
  efficacy: 90%
[2]; [7]
  logP[a]: 0.59
[2]; [5]
  logP[n]: 1.07
Myzus persicae [3]; [6]
  efficacy: 100%

## CN(C(=O)c1cnc(C(O)c2ncccn2)n1C)c1cccnc1 (racemic) [Example I-1-21]
Myzus persicae [1]; [4]
  efficacy: 100%
[2]; [5]
  logP[n]: 0.40
Myzus persicae [3]; [6]
  efficacy: 100%

## CC(C)CC(O)c1ncc(C(=O)N(C)c2cccnc2)n1C (racemic) [Example I-1-60]
Myzus persicae [1]; [4]
  efficacy: 90%
[2]; [7]
  logP[a]: 0.60
[2]; [5]
  logP[n]: 1.26
Myzus persicae [3]; [6]
  efficacy: 100%

## CC(C)CCC(O)c1ncc(C(=O)N(C)c2cccnc2)n1C (racemic) [Example I-1-61]
Myzus persicae [1]; [4]
  efficacy: 90%
[2]; [7]
  logP[a]: 0.92
[2]; [5]
  logP[n]: 1.53
Myzus persicae [3]; [6]
  efficacy: 100%

## CN(C(=O)c1cnc(Cc2ccccc2)n1C)c1cccnc1 [Example I-1-3, 2-Benzyl-N,1-dimethyl-N-(pyridin-3-yl)-1H-imidazole-5-carboxamide]
Myzus persicae [1]; [4]
  pest or weed control at 500 g/ha: 100%
[2]; [8]
  chromatographic logP: 0.64
[2]; [9]
  chromatographic logP: 1.48
Myzus persicae [3]; [6]
  pest or weed control at 20 ppm: 90%

## CN(C(=O)c1cnc(Cc2ncccn2)n1C)c1cccnc1 [Example I-1-4]
Myzus persicae [1]; [4]
  efficacy: 100%
[2]; [5]
  logP[n]: 0.68
Myzus persicae [3]; [6]
  efficacy: 100%

## CN(C(=O)c1cnc(CCc2ccccc2)n1C)c1cccnc1 [Example I-1-5, N,1-Dimethyl-2-(phenylethyl)-N-(pyridin-3-yl)-1H-imidazole-5-carboxamide]
Myzus persicae [1]; [4]
  pest or weed control at 500 g/ha: 100%
[2]; [8]
  chromatographic logP: 0.66
[2]; [9]
  chromatographic logP: 1.58
Myzus persicae [3]; [6]
  pest or weed control at 20 ppm: 100%

## C=Cc1ncc(C(=O)N(C)c2cccnc2)n1C [Example I-1-6, N,1-Dimethyl-N-(pyridin-3-yl)-2-vinyl-1H-imidazole-5-carboxamide]
Myzus persicae [1]; [4]
  pest or weed control at 500 g/ha: 100%
Myzus persicae [3]; [6]
  pest or weed control at 20 ppm: 100%

## CN(C(=O)c1cnc(CO)n1C)c1cccnc1 [Example I-1-7, 2-(Hydroxymethyl)-N,1-dimethyl-N-(pyridin-3-yl)-1H-imidazole-5-carboxamide]
Myzus persicae [1]; [4]
  pest or weed control at 500 g/ha: 100%
[2]; [9]
  chromatographic logP: 0.28
Myzus persicae [3]; [6]
  pest or weed control at 20 ppm: 100%

## CCN(C(=O)c1cnc(CO)n1C)c1cccnc1 [Example I-1-8]
[2]; [7]
  logP[a]: −0.16
[2]; [5]
  logP[n]: 0.63
Myzus persicae [3]; [6]
  efficacy: 90%

## CN(C(=O)c1cnc(C(C)(C)O)n1C)c1cccnc1 [Example I-1-10, 2-(2-Hydroxypropan-2-yl)-N,1-dimethyl-N-(pyridin-3-yl)-1H-imidazole-5-carboxamide]
Myzus persicae [1]
  pest or weed control at 500 g/ha: 90%
[2]; [9]
  chromatographic logP: 0.57
Myzus persicae [3]
  pest or weed control at 20 ppm: 70%

## CN(C(=O)c1cnc(C(O)c2ccccc2)n1C)c1cccnc1 (centres unmarked) [Example I-1-12, 2-[Hydroxy(phenyl)methyl]-N,1-dimethyl-N-(pyridin-3-yl)-1H-imidazole-5-carboxamide]
Myzus persicae [1]
  pest or weed control at 500 g/ha: 90%
[2]; [8]
  chromatographic logP: 0.52
[2]; [9]
  chromatographic logP: 1.23
Myzus persicae [3]
  pest or weed control at 20 ppm: 100%

## CC(C)CS(=O)(=O)Cc1ncc(C(=O)N(C)c2ccc[n+]([O-])c2)n1C [Example I-1-55, 2-[(Isobutylsulphonyl)methyl]-N,1-dimethyl-N-(1-oxidopyridin-3-yl)-1H-imidazole-5-carboxamide]
[2]; [8]
  chromatographic logP: 0.68
[2]; [9]
  chromatographic logP: 0.77

## C=C(C)c1ncc(C(=O)N(C)c2cccnc2)n1C [Example I-1-57]
Myzus persicae [1]; [4]
  efficacy: 90%
[2]; [7]
  logP[a]: 0.10
[2]; [5]
  logP[n]: 1.05

## C/C=C/c1ncc(C(=O)N(C)c2cccnc2)n1C [Example I-1-58]
Myzus persicae [1]; [4]
  efficacy: 90%
[2]; [5]
  logP[n]: 1.08

## C/C=C\c1ncc(C(=O)N(C)c2cccnc2)n1C [Example I-1-59]
Myzus persicae [1]; [4]
  efficacy: 90%
[2]; [5]
  logP[n]: 1.11

## Cn1c(C(=O)N(c2cccnc2)C2CC2)cnc1CO [Example I-1-66]
[2]; [5]
  logP[n]: 0.61
Myzus persicae [3]; [6]
  efficacy: 70%

## CN(C(=O)c1cnc(C(OCC(F)(F)F)C(F)(F)F)n1C)c1cccnc1 (centres unmarked) [Example I-1-67, N,1-Dimethyl-N-(pyridin-3-yl)-2-[2,2,2-trifluoro-1-(2,2,2-trifluoroethoxy)ethyl]-1H-imidazole-5-carboxamide]
Myzus persicae [1]; [4]
  pest or weed control at 500 g/ha: 70%
[2]; [8]
  chromatographic logP: 1.72
[2]; [9]
  chromatographic logP: 1.86

## CN(C(=O)c1cnc(C(O)C(Cl)(Cl)Cl)n1C)c1cccnc1 (centres unmarked) [Example I-1-68]
[2]; [7]
  logP[a]: 1.02
[2]; [5]
  logP[n]: 1.21

## CN(C(=O)c1cnc(Cn2ncn(C3CC3)c2=O)n1C)c1cccnc1 [Example I-1-69]
Myzus persicae [1]; [4]
  efficacy: 70%
[2]; [7]
  logP[a]: 0.22
[2]; [5]
  logP[n]: 0.59

## CN(C(=O)c1cnc(Cn2ncn(C)c2=O)n1C)c1cccnc1 [Example I-1-70]
[2]; [5]
  logP[n]: 0.37

## CN(C(=O)c1cnc(CCl)n1C)c1cccnc1 [III-1-1, 2-(Chloromethyl)-N,1-dimethyl-N-(pyridin-3-yl)-1H-imidazole-5-carboxamide]
[2]; [9]
  chromatographic logP: 0.89

## CN(C(=O)c1cnc(C#Cc2ccccc2)n1C)c1cccnc1 [IV-1-1, N,1-Dimethyl-2-(phenylethinyl)-N-(pyridin-3-yl)-1H-imidazole-5-carboxamide]
[2]; [8]
  chromatographic logP: 1.86
[2]; [9]
  chromatographic logP: 1.98
